This note sets out measurements from BindingDB's records for doi:10.1016/0896-6273(94)90055-8 (Massachusetts General Hospital, 1994).

Experiment [1] addresses T1, Melatonin receptor type 1B (Homo sapiens, UniProt P49286).
T1 sequence (P49286 whole entry): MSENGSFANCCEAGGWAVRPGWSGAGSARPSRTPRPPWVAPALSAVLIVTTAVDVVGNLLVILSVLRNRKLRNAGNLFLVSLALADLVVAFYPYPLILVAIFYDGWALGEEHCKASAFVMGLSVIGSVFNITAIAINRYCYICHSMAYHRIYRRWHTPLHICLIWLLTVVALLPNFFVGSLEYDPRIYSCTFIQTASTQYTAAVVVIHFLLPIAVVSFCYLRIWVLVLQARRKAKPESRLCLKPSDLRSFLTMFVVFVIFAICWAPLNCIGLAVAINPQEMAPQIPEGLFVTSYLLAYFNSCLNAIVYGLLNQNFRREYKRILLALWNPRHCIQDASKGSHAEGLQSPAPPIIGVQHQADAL

Experiment [2] addresses Melatonin receptor type 1A (Ovis aries, UniProt P48040).

Each structure is given as a SMILES string.

Chain of Melatonin receptor type 1A (P48040 whole entry): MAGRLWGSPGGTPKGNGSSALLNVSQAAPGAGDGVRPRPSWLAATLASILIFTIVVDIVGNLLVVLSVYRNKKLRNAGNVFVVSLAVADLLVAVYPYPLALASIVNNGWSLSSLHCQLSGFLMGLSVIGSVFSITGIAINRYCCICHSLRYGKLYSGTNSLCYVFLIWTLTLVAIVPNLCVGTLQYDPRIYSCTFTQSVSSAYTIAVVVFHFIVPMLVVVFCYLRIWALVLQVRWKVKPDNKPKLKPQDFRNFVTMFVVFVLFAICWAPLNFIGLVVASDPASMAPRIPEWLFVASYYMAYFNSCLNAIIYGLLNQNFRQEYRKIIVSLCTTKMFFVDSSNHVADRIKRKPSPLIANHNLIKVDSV

In general, Ki refers to a dissociation constant, usually derived from enzyme kinetics or from competition with a known ligand. With `COc1cc2c(CCNC(C)=O)c[nH]c2cc1O` [melatonin, 6-Hydroxy], the Ki in experiment [1] worked out at 2 nM.
On to `COc1ccc2[nH]c(I)c(CCNC(C)=O)c2c1`, for which affinity in experiment [2] was put at a Ki of 0.03 nM.
Regarding `CC(=O)n1cc(CCN)c2cc(O)ccc21` [NSC_260803], the results for the Ki in experiment [1] and in experiment [2] were 170 nM and 140 nM, respectively.
As for `NCCc1c[nH]c2ccc(O)cc12` [[3H]-5-HT], the Ki in experiment [2] is above 10000 nM.
Turning to `COc1cc2c(CCNC(C)=O)c[nH]c2cc1Cl`, the Ki in experiment [2] was determined as 0.25 nM.
